The text below walks through data of patent US20090142323A1, “METHODS FOR TREATING A DISORDER BY REGULATING GPRC6A” (priority 2007, published 2009).

Test [1] concerns the target T1, GPRC6A (Mus musculus, UniProt Q8K4Z6).
T1 sequence (Q8K4Z6 21-928): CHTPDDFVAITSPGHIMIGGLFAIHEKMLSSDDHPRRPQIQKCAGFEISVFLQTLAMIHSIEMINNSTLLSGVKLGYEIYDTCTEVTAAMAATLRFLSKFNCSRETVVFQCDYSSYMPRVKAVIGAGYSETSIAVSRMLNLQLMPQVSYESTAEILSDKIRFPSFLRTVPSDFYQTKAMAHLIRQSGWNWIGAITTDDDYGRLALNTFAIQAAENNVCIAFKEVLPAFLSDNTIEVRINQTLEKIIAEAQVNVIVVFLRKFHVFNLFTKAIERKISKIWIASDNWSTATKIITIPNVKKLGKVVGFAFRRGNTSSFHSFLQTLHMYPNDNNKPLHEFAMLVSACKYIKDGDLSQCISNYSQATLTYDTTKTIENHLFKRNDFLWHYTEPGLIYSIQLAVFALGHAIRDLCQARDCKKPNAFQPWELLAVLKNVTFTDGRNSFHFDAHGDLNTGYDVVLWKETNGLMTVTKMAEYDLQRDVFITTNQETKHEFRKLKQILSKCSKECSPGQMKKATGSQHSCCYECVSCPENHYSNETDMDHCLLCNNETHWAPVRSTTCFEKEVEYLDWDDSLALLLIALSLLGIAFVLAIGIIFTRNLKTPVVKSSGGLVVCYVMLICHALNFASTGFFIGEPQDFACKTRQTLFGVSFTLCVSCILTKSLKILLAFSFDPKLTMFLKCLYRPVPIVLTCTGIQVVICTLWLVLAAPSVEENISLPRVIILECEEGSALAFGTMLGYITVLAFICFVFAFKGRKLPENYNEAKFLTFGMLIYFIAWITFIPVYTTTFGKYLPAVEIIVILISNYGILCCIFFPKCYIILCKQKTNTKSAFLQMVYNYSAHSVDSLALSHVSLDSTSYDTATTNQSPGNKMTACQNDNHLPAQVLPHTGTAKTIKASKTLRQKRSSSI
Put plainly: phospho-ERK activation in HEK-293 cells transfected with GPRC6A (immunoblot). The class given is cell-based. On the set-up: expressed in transfected cells; host or cells: HEK-293. Conditions: for inhibition of testosterone stimulated GPRC6A-mediated activation of phospho-ERK: 10 μM PD89059, 50 μM Ly294002, 2 μM U73122, 10 μM PP-1; for block of GPRC6A-mediated extracellular testosterone stimulated signaling: either phospho-ERK or SRE-luciferase as read-outs. As to the method:
(§1) Equal amounts of lysates were subjected to 10% SDS-PAGE, and phospho-ERK1/2 levels were determined by immunoblotting using antiphospho-ERK1/2 mitogen-activated protein kinase antibody (Cell Signaling Technology). […] An anti-peptide antibody was raised in a rabbit against a peptide ([…] (SEQ ID NO: 27)) corresponding to a sequence in the extracellular domain of mouse GPRC6A (in exon 1 of mouse GPRC6A gene) produced by Abgent (San Diego, Calif.). For phospho-ERK, the phospho-ERK1/2 levels were determined by immunoblotting using anti-phospho-ERK1/2 mitogen-activated protein kinase antibody (Cell Signaling Technology). Urinary β2-microglobulin was detected by rabbit polyclonal anti-β2-microglobulin antibody (Abcam Inc.). For aromatase expression analysis, the rabbit polyclonal anti-aromatase antibody (Abcam Inc.) and goat anti-rabbit IgG HRP secondary antibody (Santa Cruz Biotechnology Inc.) were used. Mouse anti-Actin antibody (Santa Cruz Biotechnology Inc.) was used for control protein loading.
In general terms: In western blotting, separated proteins are transferred to a membrane and probed.

The subject of a further test is osteoblastic cells. The note with it: 10 nM; cited from earlier work.
Test [2] has as its system bone marrow stromal cells (BMSC). The test can be described thus: phospho-ERK in bone marrow stromal cells from wild-type and GPRC6A-/- mice. The class given is cell-based, mouse. As to the method: The femurs and tibias from 8-week-old wild-type and GPRC6A^−/− mice were dissected, the ends of the bones were cut, and marrow was flushed out with 2 mL of ice-cold a-MEM containing 10% FBS using a needle and syringe. A suspension of bone marrow cells was obtained by repeated aspiration of the cell preparation through a 22-gauge needle, and nucleated cells were counted with a hemocytometer. Cells were seeded into 6-well plates at a density of 3×10^7 cells/mL and cultured for three days in a-MEM supplemented with 10% FBS, 100 kU/L of sodium penicillin G and 100 mg/L of streptomycin sulfate in a humidified incubator with 5% CO2 and 95% air at a temperature of 37° C. On day 3, all nonadherent cells were then removed with the first medium change and then the adherent cells (representing bone marrow-derived mesenchymal stem cells, BMSCs) were grown for additional periods of up 3 days in the same medium. After overnight quiescence, the cells were stimulated for 5 minutes by testosterone and p-estradiol at the concentrations as indicated.

Test [3] concerns the target T1, GPRC6A. The test can be described thus: SRE-luciferase reporter in HEK-293 cells co-transfected with pcDNA3.mGPRC6A. The class given is cell-based. The arrangement: expressed in transfected cells; host or cells: HEK-293. The note with it: for inhibition of R1881 stimulated GPRC6A-mediated activation of luciferase: SRE-luciferase. As to the method: HEK-293 cells were co-transfected with pcDNA3.mGPRC6A and SRE-luciferase reporter gene plasmid. […] Luciferase activity was assessed after 6 h of stimulation. The luciferase activity in cell extracts was measured using the luciferase assay system (Promega) following the manufacturer's protocol using a BG-luminometer (Gem Biomedical, Inc., Hamden, Conn.).

The target of test [4] is T1, GPRC6A. Put plainly: phospho-Src and phospho-Raf-1 western blot, GPRC6A-mediated. The class given is cell-based. The arrangement: expressed in transfected cells. From the text: Several physiological processes arising as a result of the rapid action of the Src-Ras-ERK signaling pathway in steroids non-genomic action also have been reported. To define the role of GPRC6A in androgen-mediated cell signaling activation, we examine the Src and Raf-1 are involved in GPRC6A-mediated androgen stimulated intercellular signaling pathway.

In test [5] the test system is LNCaP prostate cancer cell line. Conditions: 10 nM, within minutes; cited from earlier work.
For test [6], the target named is T2, calcium sensing receptor (CASR) (Rattus norvegicus, UniProt P48442).
T2 construct: expressed in transfected cells; host or cells: HEK-293
T2 sequence (P48442 20-1079): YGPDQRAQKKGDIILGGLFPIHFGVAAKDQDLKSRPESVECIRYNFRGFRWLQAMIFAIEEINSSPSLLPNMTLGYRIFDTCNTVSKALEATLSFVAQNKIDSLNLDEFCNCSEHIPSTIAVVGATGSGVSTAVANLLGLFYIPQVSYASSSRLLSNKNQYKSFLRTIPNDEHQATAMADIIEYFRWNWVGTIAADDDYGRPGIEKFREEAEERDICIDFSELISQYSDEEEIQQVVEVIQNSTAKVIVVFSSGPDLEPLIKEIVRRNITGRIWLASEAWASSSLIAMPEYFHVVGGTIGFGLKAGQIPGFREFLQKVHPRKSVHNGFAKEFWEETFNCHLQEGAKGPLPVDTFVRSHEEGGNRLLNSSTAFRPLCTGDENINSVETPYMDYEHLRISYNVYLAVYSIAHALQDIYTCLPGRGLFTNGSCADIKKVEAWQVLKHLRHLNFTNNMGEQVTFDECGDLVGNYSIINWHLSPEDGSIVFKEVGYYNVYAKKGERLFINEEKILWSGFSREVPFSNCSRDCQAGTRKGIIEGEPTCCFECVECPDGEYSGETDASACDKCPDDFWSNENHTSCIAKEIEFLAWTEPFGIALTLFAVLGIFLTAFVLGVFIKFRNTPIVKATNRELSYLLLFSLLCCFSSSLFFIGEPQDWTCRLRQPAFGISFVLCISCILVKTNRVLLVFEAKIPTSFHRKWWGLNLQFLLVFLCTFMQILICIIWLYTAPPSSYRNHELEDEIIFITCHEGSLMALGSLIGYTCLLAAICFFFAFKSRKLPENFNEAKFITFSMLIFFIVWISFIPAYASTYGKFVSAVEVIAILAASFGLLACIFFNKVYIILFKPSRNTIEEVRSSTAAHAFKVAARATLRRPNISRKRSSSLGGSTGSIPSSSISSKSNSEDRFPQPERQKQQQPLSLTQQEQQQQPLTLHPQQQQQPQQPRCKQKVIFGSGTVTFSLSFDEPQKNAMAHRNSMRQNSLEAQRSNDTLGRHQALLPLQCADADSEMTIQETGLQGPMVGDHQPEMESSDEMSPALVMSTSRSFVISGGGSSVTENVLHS
The test can be described thus: phospho-ERK in HEK-293 cells transfected with calcium sensing receptor. The class given is cell-based. Conditions: HEK293 transfected with CASR. As to the method:
as §1

The next test has as its system HEK-293 cells. The test can be described thus: phospho-ERK in non-transfected HEK-293 control cells. The class given is cell-based, human. Conditions: control HEK293, no GPRC6A. As to the method: as §1
Test [7] has as its target T1, GPRC6A. The arrangement: expressed in transfected cells. Conditions: in vitro; cited from earlier work.
Where [8] appears, read: HEK-293 cells transfected with GPRC6A.
Setting [9] is: BMSC from GPRC6A-/- mice, testosterone up to 80 nM.

Consider `C=C1/C(=C\C=C2/CCC[C@]3(C)[C@@H]([C@H](C)CCCC(C)(C)O)CC[C@@H]23)C[C@@H](O)C[C@@H]1O` [1,25(OH)2Vit D3], for which the “GPRC6A-mediated activation of phospho-ERK” value on GPRC6A [1] (setting [8]) is “stimulated the GPRC6A-mediated activation of phospho-ERK”.

In the case of `C[C@]12CC[C@@H]3c4ccc(O)cc4CC[C@H]3[C@@H]1CC[C@@H]2O` [17p-estradiol], at GPRC6A [1] (setting [8]), the “GPRC6A-mediated activation of phospho-ERK” value is given as “stimulated the GPRC6A-mediated activation of phospho-ERK” and the “concentration required to activate GPRC6A (phosphorylation of ERK)” value is 60 to 80 nM.

Turning to `C[C@]12CC[C@H](O)CC1=CC[C@@H]1[C@@H]2CC[C@]2(C)C(=O)CC[C@@H]12` [DHEA, Dehydroandrosterone], on GPRC6A [1] (setting [8]), the “GPRC6A-mediated activation of phospho-ERK” value is “stimulated the GPRC6A-mediated activation of phospho-ERK”.

Take `C[C@]12CCC(=O)C[C@@H]1CC[C@@H]1[C@@H]2CC[C@]2(C)[C@@H](O)CC[C@@H]12` [DHT]: the Akt activity entry with osteoblastic cells is listed as “stimulation of Akt activity”.

Consider `COc1cccc([C@@H](C)NCCCc2ccccc2Cl)c1` [NPS-R568], for which the results for the “stimulation of phospho-ERK in BMSC” value in test [2] (setting [9]) and in test [2] (BMSC from wild-type mice) were “failed to responds” and “stimulation of ERK phosphorylation”, respectively.

As to `COc1cccc(-c2cc(=O)c3ccccc3o2)c1N` [PD89059], at GPRC6A [3], the “inhibition of R1881 stimulated GPRC6A-mediated activation of luciferase” value (“inhibition … of luciferase” for short) is reported as “inhibited”. Besides, at GPRC6A [1], the “inhibition of testosterone stimulated GPRC6A-mediated activation of phospho-ERK” value (“inhibition … of phospho-ERK” for short) is “inhibited” and the “block of GPRC6A-mediated extracellular testosterone stimulated signaling” value is on record as “blocked”.

On to `Cc1ccc(-c2nn(C(C)(C)C)c3ncnc(N)c23)cc1` [PP-1], for which the “inhibition … of luciferase” value on GPRC6A [3] is on record as “inhibited”. On GPRC6A [1], the “inhibition … of phospho-ERK” value is reported as “inhibited” and the “block of GPRC6A-mediated extracellular testosterone stimulated signaling” value is given as “blocked”.

As to `C[C@]1(O)CC[C@H]2[C@@H]3CCC4=CC(=O)CCC4=C3C=C[C@@]21C` [R1881], at GPRC6A [4], the “GPRC6A-mediated activation of phospho-Raf-1” value is on record as “stimulated” and the “GPRC6A-mediated activation of phospho-Src” value is “stimulated GPRC6A-mediated activation of phospho-Src”. In addition, the “GPRC6A mediated activation of luciferase” value at GPRC6A [3] (SRE-luciferase reporter, HEK-293) is reported as “stimulated the GPRC6A mediated activation of luciferase”. The “GPRC6A-mediated activation of phospho-ERK” value on GPRC6A [1] (setting [8]) is given as “stimulated extracellular signal-regulated kinase phosphorylation (phospho-ERK) in a dose-dependent fashion”. Moreover, in test [5], the Src kinase activity result was “stimulation of Src kinase activity”. Also, the phospho-ERK response result in test [6] was “did not responded”. For the same molecule, in the test on HEK-293 cells, the phospho-ERK response entry was “did not responded”.

Turning to `Cn1cc(C2=C(c3cn(CCCSC(=N)N)c4ccccc34)C(=O)NC2=O)c2ccccc21` [Ro31-8220], the “inhibition … of luciferase” value on GPRC6A [3] is reported as “inhibited”. Further, the “block of GPRC6A-mediated extracellular testosterone stimulated signaling” value at GPRC6A [1] was “blocked”.

For `COc1ccc2c(c1)CC[C@@H]1[C@@H]2CC[C@]2(C)[C@@H](NCCCCCCN3C(=O)C=CC3=O)CC[C@@H]12` [U73122], the “inhibition … of phospho-ERK” value against GPRC6A [1] was “inhibited”.

As to `CC(C)CCC[C@@H](C)[C@H]1CC[C@H]2[C@@H]3CC=C4C[C@@H](O)CC[C@]4(C)[C@H]3CC[C@]12C` [cholesterol], the “GPRC6A-mediated activation of phospho-ERK” value at GPRC6A [1] (setting [8]) is “stimulated the GPRC6A-mediated activation of phospho-ERK”.

In the case of `[Ca+2]` [extracellular calcium, calcium], the “stimulation of phospho-ERK in BMSC” value is “failed to responds” in test [2] (setting [9]) and “stimulation of ERK phosphorylation” in test [2] (BMSC from wild-type mice).

On to `CC(=O)[C@H]1CC[C@H]2[C@@H]3CCC4=CC(=O)CC[C@]4(C)[C@H]3CC[C@]12C` [progesterone], for which the “GPRC6A-mediated activation of phospho-ERK” value on GPRC6A [1] (concentrations up to 80 nM) was “no effect”.

With osteocalcin, on GPRC6A [7], the “functional responses of GPRC6A to extracellular calcium” value was “enhance the functional responses of GPRC6A to extracellular calcium”.

Consider pertussis toxin, for which the “block of testosterone and β-estradiol stimulated activation of phospho-ERK” value on GPRC6A [1] (100 ng/ml PTx, stimuli at 50 nM) is “significantly blocked”.
